Source: paper PMC7182039 (Journal of medicinal chemistry, 2020)
“And” between values parts separate entries of the source, which are not always exact repeats. Equal values may be shown once. Read-outs that look alike come from different tables or passages of the source. Marks after values point to notes of the source that are not given here.

How the values were obtained:
schistosomes = conditions: cited from earlier work
[1] = Kinetic solubility by nephelometry; assay type: physicochemical; conditions: for sol6.5 / sol2.0: kinetic solubility, 1% DMSO, 30 min; for sol6.5: pH 6.5 phosphate buffer; for sol2.0: 0.01 M HCl (approx. pH 2.0)
[2] = tested on: juvenile stage of S. mansoni; conditions: mice, single 200 mg/kg oral dose; cited from earlier work
S. mansoni = conditions: adult infection, mice, single 400 mg/kg oral dose, cited from earlier work
[3] = In vitro metabolic stability in human liver microsomes; assay type: in vitro ADME; conditions: for h CLint: 37 °C, 0.4 mg/mL protein, NADPH
[4] = In vitro metabolic stability in mouse liver microsomes; assay type: in vitro ADME; conditions: 37 °C, 0.4 mg/mL protein, NADPH
hepatocyte (HC-04) = test: Cytotoxicity screen; assay type: cell-based, human; conditions: HC-04, 24 h, Alamar blue; data not shown
kidney (HEK 293T) = test: Cytotoxicity screen; assay type: cell-based, human; conditions: 24 h, Alamar blue, data not shown
osteosarcoma (U-2 OS) = test: Cytotoxicity screen; assay type: cell-based, human; conditions: 24 h, Alamar blue, data not shown
[5] = tested on: foreskin fibroblast (HFF); test: Cytotoxicity screen; assay type: cell-based, human; conditions: 24 h, Alamar blue, data not shown

SMILES	antischistosomal activity (schistosomes)	sol6.5 [1] [µg/mL]	S. mansoni WBR (%) 1 × 200 mg/kg po [2]	S. mansoni WBR (%) 1 × 400 mg/kg po (S. mansoni; 400 mg/kg)	S. mansoni WBR (%) 1 × 400 mg/kg po (S. mansoni)	h CLint [3]	m CLint [4]	cytotoxicity: concentration without inhibition of the cell line (hepatocyte (HC-04)) [µM]	cytotoxicity: concentration without inhibition of the cell line (kidney (HEK 293T)) [µM]	cytotoxicity: concentration without inhibition of the cell line (osteosarcoma (U-2 OS)) [µM]	cytotoxicity: concentration without inhibition of the cell line [5] [µM]	conversion to 2 in human liver microsomes [3]	sol2.0 [1] [µg/mL]	solubility ([1]; DMSO) [µg/mL]
c1cc([C@H]2CC[C@]3(CC2)OO[C@]2(O3)C3CC4CC(C3)CC2C4)ccc1OCCN1CCOCC1 [Compound 1]	no antischistosomal activity	–	–	–	–	–	–	–	–	–	–	–	–	–
O=C(O)COc1ccc([C@H]2CC[C@]3(CC2)OOC2(O3)C3CC4CC(C3)CC2C4)cc1 (some centres unmarked) [Compound 2]	–	6.3 to 12.5	100^a %	80^i,j %	–	–	–	–	–	–	–	–	–	–
O=C(O)c1ccc([C@H]2CC[C@]3(CC2)OOC2(O3)C3CC4CC(C3)CC2C4)cc1 (some centres unmarked) [Compound 3]	–	–	100% and 84^a %	–	74^i,j %	–	–	–	–	–	–	–	–	–
O=C(O)COc1ccc([C@H]2CC[C@]3(CC2)OOC2(O3)C3CC4CC(C3)CC2C4)cc1Cl (stereo partly drawn) [Compound 7, cis-Adamantane-2-spiro-3 ′−8 ′-[3-chloro-4-(carboxymethoxy)-phenyl]-1′,2′,4′-trioxaspiro[4.5]decan]	–	3.1 to 6.3	–	–	–	< 7 μL/(min mg) protein	8 μL/(min mg) protein	> 50	> 50	> 50	> 50	–	–	–
O=C(O)CNC(=O)COc1ccc([C@H]2CC[C@]3(CC2)OOC2(O3)C3CC4CC(C3)CC2C4)cc1 (stereo partly drawn) [Compound 14, cis-Adamantane-2-spiro-3′−8′-[4-[2-[(carboxymethyl)amino]-2-oxoethoxy]phenyl]-1′,2′,4′-trioxaspiro[4.5]decane]	–	–	–	–	–	<7/CND^a,b μL/(min mg) protein	–	> 50	> 50	> 50	> 50	converted to 2 in human	12.5 to 25	–
O=C(O)CN1CCC(Oc2ccc([C@H]3CC[C@]4(CC3)OOC3(O4)C4CC5CC(C4)CC3C5)cc2)CC1 (some centres unmarked) [Compound 16]	–	–	–	–	–	<7/<7 μL/(min mg) protein	<7/<7 μL/(min mg) protein	> 50	> 50	> 50	> 50	–	–	< 1000
CS(=O)(=O)O.O=C(O)CNCc1ccc([C@H]2CC[C@]3(CC2)OOC2(O3)C3CC4CC(C3)CC2C4)cc1 (stereo partly drawn) [Compound 17, cis-Adamantane-2-spiro-3′−8′-[4-[[(carboxymethyi)amino]-methyl]phenyi]-1′,2′,4′-trioxaspiro[4.5]decane mesyiate]	–	< 6.3	–	–	–	< 7 μL/(min mg) protein	10 μL/(min mg) protein	> 50	> 50	> 50	> 50	–	< 12.5	–
